Read-outs that look alike come from different tables or passages of the source.
What was measured:
[1] = system: β-catenin/TCF transcriptional activity in HCT116 cells; type: cell-based; settings: HCT116, 24 hours of treatment
Experimental: Cells were seeded at a density of 5 × 10^4 cells per well in 24-well tissue culture plates and incubated overnight at 37°C. Cells were transiently transfected with 0.1 μg TOP-FLASH constructs (Millipore) and 0.1 μg β-galactosidase-expressing vector (Promega). After 24 hours of transfection, cells were treated with ADT-094 or vehicle for 24 hours. At the end of treatment, cells were lysed and both luciferase and β-galactosidase activities were measured using kits from Promega. All luciferase activity was normalized to β-galactosidase activity.

[2] = system: NCM460 normal colonocytes; settings: as previously reported; cited from earlier work
[3] = system: β-catenin signaling in HCT116 colon tumor cells; assay: Western blotting of β-catenin, cyclin D1, survivin, HCT116; type: cell-based, human
Experimental: Western blotting was performed as described previously. Cells were treated with ADT-094 or vehicle for 8 hours before cell lysates were collected.

[4] = system: cGMP PDE activity in HCT116 lysates; assay: cGMP hydrolysis in lysates from HCT116 colon tumor cells; type: biochemical, human; settings: in words, Figure 1C
Experimental: (§1) PDE activity was measured using the IMAP fluorescence polarization (FP) PDE assay (Molecular Devices) in which binding of hydrolyzed fluorescent cyclic nucleotide substrate to the IMAP reagent increases FP as described previously.

HCT116 colon tumor cells = assay: Growth assay (Cell Titer Glo), HCT116; type: cell-based, human; settings: for HCT116 colon tumor cell growth: in words, Figure 1B; for IC50: Homo sapiens, HCT-116, 72 h
Experimental: All cell lines were expanded upon delivery, and numerous aliquots of low passage cells were preserved in liquid N2. Cells were passaged no longer than 2 months. Tumor cell lines obtained from ATCC were characterized by STR profiling as performed by ATCC. The NCM460 line was characterized by INCELL as described previously (e.g. tumorigenicity testing). No additional re-authentication of the cell lines was performed except for experimental reasons (e.g. confirmation of cell doubling time, morphology, sensitivity to SS, PDE5/10 expression levels, etc). Cells were plated in 96-well microtiter plates at a density of 5,000 cells per well. For drug treatment, cells were treated with compound or vehicle, and incubated at 37°C for 72 hours. […] For siRNA assays, cells were transfected with siRNA under the same condition described above. The effect of treatment on cell growth was measured using the Cell Titer Glo Assay as specified by the manufacturer (Promega). The IC50 values were determined as described previously. All experiments were repeated a minimum of three times to determine the reproducibility of the results. All error bars represent standard error of the mean (SEM). Statistical analysis of differences between samples was performed using the Student’s t-test.

[5] = system: NCM460 normal colonocytes; assay: Growth assay (Cell Titer Glo), NCM460 normal colonocytes; type: cell-based, human; settings: Homo sapiens, NCM460, 72 h, read-out: NCM460 growth IC50
Experimental: (§2) Human colon tumor cell lines, HCT116, HT29, SW480 and Caco-2 were obtained from the American Type Culture Collection (ATCC) and grown under standard cell culture conditions in RPMI 1640 medium containing 5% serum at 37°C in a humidified atmosphere with 5% CO2. The human colonocyte line, NCM460, that is derived from normal human colon mucosa was obtained from INCELL and grown in INCELL’s enriched M3:10 medium with 10% serum as recommended by supplier. All cell lines were expanded upon delivery, and numerous aliquots of low passage cells were preserved in liquid N2. Cells were passaged no longer than 2 months. Tumor cell lines obtained from ATCC were characterized by STR profiling as performed by ATCC. The NCM460 line was characterized by INCELL as described previously (e.g. tumorigenicity testing). No additional re-authentication of the cell lines was performed except for experimental reasons (e.g. confirmation of cell doubling time, morphology, sensitivity to SS, PDE5/10 expression levels, etc).
(§3) Cells were plated in 96-well microtiter plates at a density of 5,000 cells per well. For drug treatment, cells were treated with compound or vehicle, and incubated at 37°C for 72 hours. All growth assays were performed in 5% serum unless otherwise noted. Deionized water was used as vehicle control for papaverine. For siRNA assays, cells were transfected with siRNA under the same condition described above. The effect of treatment on cell growth was measured using the Cell Titer Glo Assay as specified by the manufacturer (Promega).
(§4) The IC50 values were determined as described previously. All experiments were repeated a minimum of three times to determine the reproducibility of the results. All error bars represent standard error of the mean (SEM). Statistical analysis of differences between samples was performed using the Student’s t-test. A P value of < 0.05 was considered statistically significant.

PDE10 = biological target: T1, PDE10 (Homo sapiens, UniProt Q9Y233); assay: IMAP fluorescence polarization PDE assay, recombinant PDE10; type: biochemical; settings: recombinant enzyme
T1 construct: purchased BPS Biosciences
Experimental: (§5) Recombinant PDE isozymes were purchased from BPS Biosciences. The PDE10 antibody was purchased from GeneTex, while the PDE5 antibody was purchased from Cell Signaling Technologies. Non-targeting control siRNA and PDE10 specific siRNAs were purchased from Qiagen. RNAiMAX transfection reagent was purchased from Invitrogen. DMSO was used as vehicle for all compounds unless otherwise noted. All other reagents were purchased from Sigma.
as §1, §4

HT29 colon tumor cells = assay: Growth assay (Cell Titer Glo), HT29; type: cell-based; settings: Homo sapiens, HT-29, 72 h
Experimental: as §2, §3, §4

purified ovine COX-1 = biological target: T2, purified ovine COX-1 (Ovis aries, UniProt P05979); assay: COX-1 colorimetric assay; type: biochemical
T2 construct: purchased Cayman
T2 sequence (P05979 25-600): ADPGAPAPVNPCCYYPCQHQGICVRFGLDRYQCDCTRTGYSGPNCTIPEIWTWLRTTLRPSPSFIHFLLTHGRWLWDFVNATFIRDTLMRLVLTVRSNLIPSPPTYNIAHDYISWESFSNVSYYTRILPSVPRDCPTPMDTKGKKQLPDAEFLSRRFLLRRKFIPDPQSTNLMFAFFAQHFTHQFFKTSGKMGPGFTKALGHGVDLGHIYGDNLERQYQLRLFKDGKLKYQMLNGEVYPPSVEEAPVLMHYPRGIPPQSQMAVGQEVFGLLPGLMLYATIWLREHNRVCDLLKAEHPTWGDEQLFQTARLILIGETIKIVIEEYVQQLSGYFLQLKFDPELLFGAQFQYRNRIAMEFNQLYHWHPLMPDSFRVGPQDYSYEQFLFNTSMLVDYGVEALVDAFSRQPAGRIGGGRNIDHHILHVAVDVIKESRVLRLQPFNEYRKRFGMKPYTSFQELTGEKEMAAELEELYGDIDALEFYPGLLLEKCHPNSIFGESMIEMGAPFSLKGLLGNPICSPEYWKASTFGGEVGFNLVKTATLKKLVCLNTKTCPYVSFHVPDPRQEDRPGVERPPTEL
Experimental: COX-1 and COX-2 activities were measured using purified ovine COX-1 and COX-2 with colorimetric assay kits obtained from Cayman as previously reported. The activities of COX-1 and COX-2 were measured after the addition of arachidonic acid and incubation at 25°C for 5 min by absorbance at 590 nm as specified by the manufacturer.
as §4

PDE5 = biological target: T3, PDE5 (Homo sapiens, UniProt O76074); assay: IMAP fluorescence polarization PDE assay, recombinant PDE5; type: biochemical; settings: recombinant enzyme
T3 construct: purchased BPS Biosciences
Experimental: as §5, §1, §4

T1 sequence (Q9Y233 267-1055): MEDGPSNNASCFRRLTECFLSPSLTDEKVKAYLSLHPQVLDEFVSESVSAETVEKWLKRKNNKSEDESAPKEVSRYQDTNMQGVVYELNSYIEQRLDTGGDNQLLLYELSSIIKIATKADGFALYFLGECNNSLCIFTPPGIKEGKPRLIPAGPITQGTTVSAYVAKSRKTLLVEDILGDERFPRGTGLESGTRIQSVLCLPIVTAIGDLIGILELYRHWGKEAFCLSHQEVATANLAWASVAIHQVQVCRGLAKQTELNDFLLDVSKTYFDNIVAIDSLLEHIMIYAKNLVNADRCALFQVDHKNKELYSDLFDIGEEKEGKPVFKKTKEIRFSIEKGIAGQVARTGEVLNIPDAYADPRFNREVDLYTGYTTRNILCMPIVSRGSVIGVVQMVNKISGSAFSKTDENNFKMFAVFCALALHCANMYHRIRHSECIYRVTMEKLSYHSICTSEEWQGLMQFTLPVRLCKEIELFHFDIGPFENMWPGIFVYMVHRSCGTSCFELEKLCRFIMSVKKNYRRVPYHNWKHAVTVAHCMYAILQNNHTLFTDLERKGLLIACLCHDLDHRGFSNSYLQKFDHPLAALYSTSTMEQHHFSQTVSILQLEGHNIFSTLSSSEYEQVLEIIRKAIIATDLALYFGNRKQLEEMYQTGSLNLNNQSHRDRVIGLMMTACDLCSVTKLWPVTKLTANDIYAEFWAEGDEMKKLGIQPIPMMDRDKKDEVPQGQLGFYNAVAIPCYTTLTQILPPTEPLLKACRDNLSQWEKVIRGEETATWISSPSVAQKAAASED

In the case of `Clc1cccc(Nc2nnc(-c3ccccc3)c3ccccc23)c1` [MY5445, 1-(3-chlorophenylamino)-4-phenylphthalazine], the β-catenin/TCF transcriptional activity [1] is listed as “reduced”, the growth of colonocytes [2] is listed as “did not significantly affect” and the expression of survivin [3] is listed as “reduced”. The β-catenin levels [3] was “reduced”, the “cGMP hydrolysis in HCT116 lysates” value [4] was “inhibited cGMP hydrolysis” and the “HCT116 colon tumor cell growth” value (HCT116 colon tumor cells) was “effectively inhibit”.
Compound `CSc1ccc(/C=C2/C(C)=C(CC(=O)O)c3cc(F)ccc32)cc1` [SS, Sulindac sulfide, reference compound] has an IC50 [5] of over 100 µM, an IC50 (PDE10) of 70 µM and an IC50 (HT29 colon tumor cells; read-out: HT29 growth IC50, 72 hours of treatment) of 68 µM. The IC50 (HT29 colon tumor cells; read-out: HT29 growth IC50, Figure 3C, luciferase-based ATP assay, 72 hours) was 63.8 µM, the IC50 (purified ovine COX-1) was 1.2 µM and the IC50 (PDE5) was 38 µM. For the same compound, the IC50 (HCT116 colon tumor cells; read-out: HCT116 growth IC50, 72 hours of treatment) was 51 µM and the IC50 (HCT116 colon tumor cells; read-out: HCT116 growth IC50, Figure 3C, luciferase-based ATP assay, 72 hours) was 51.1 µM.
In the case of `COc1ccc(Cc2nccc3cc(OC)c(OC)cc23)cc1OC` [papaverine], the β-catenin/TCF transcriptional activity [1] is given as “reduced”, the growth of colonocytes [2] is given as “did not significantly affect” and the expression of survivin [3] is given as “reduced”. For the same compound, the β-catenin levels [3] was “reduced”, the “cGMP hydrolysis in HCT116 lysates” value [4] was “inhibited cGMP hydrolysis” and the “HCT116 colon tumor cell growth” value (HCT116 colon tumor cells) was “effectively inhibit”.
